The numbers were not newly measured in US11732223B2, “Solvent compositions for removing petroleum residue from a substrate and methods of use thereof” (priority 2004, dated 2023), which cites them from elsewhere.

For the series, the system named is rats.

As to `CCCCOCCOCCO` [butyl carbitol], the “oral LD50” value (oral, rats) is listed as 6,560 mg/kg. For the setting “rat, in vivo”, the “toxicity rating on the Hodge and Sterner scale” value is on record as 5.
